In brackets after ≈: the same amount, converted by molar mass.
Experiments:
[1] = Inhibition of methicillin-resistant Staphylococcus aureus ProRS expressed in Escherichia coli assessed as generation of inorganic monophosphate by pre-transfer editing-based experiment
Staphylococcus aureus [2] = assay: Inhibition of methicillin-resistant Staphylococcus aureus ProRS expressed in Escherichia coli assessed as change in melting temperature in presence of AMPPNP at 0.5 mM by fluorescence-based thermal shift assay
Homo sapiens = species on record: Homo sapiens; assay: Inhibition of human ProRS expressed in Escherichia coli assessed as change in melting temperature in presence of AMPPNP at 0.5 mM by fluorescence-based thermal shift assay
Escherichia coli [3] = assay: Antibacterial activity against Escherichia coli ATCC25922 assessed as prevention of visible growth by broth microdilution method; type: functional
Shigella flexneri = assay: Antibacterial activity against Shigella flexneri CMCC51572 assessed as prevention of visible growth by broth microdilution method; type: functional
Salmonella typhi = assay: Antibacterial activity against Salmonella typhi CMCC50094 assessed as prevention of visible growth by broth microdilution method; type: functional, Salmonella enterica subsp. enterica serovar Typhi; conditions: Salmonella enterica
Staphylococcus aureus [4] = assay: Antibacterial activity against methicillin-resistant Staphylococcus aureus 252 assessed as prevention of visible growth by broth microdilution method; type: functional
Staphylococcus aureus [5] = assay: Antibacterial activity against methicillin-resistant Staphylococcus aureus R3708 assessed as prevention of visible growth by broth microdilution method; type: functional
Staphylococcus aureus [6] = assay: Antibacterial activity against Staphylococcus aureus ATCC29213 assessed as prevention of visible growth by broth microdilution method; type: functional
Staphylococcus aureus [7] = assay: Antibacterial activity against Staphylococcus aureus ATCC25923 assessed as prevention of visible growth by broth microdilution method; type: functional
Staphylococcus aureus [8] = assay: Bactericidal activity against methicillin-resistant Staphylococcus aureus 252 assessed as bacterial killing measured after 24 hrs incubation by CLSI method; type: functional; conditions: read-out: MBC99.9
Staphylococcus aureus [9] = assay: Ratio of MBC99.9 for methicillin-resistant Staphylococcus aureus 252 to MIC for methicillin-resistant Staphylococcus aureus 252; type: functional
Escherichia coli [10] = assay: Ratio of MBC99.9 for Escherichia coli ATCC25922 to MIC for Escherichia coli ATCC25922; type: functional
Staphylococcus aureus [11] = assay: Resistance development in methicillin-resistant Staphylococcus aureus 252 assessed as fold increase in resistance after 15 days serial passage upto 256 ug/ml; type: functional; conditions: dose <= 256 µg/ml; time 15 day
Escherichia coli [12] = assay: Resistance development in Escherichia coli ATCC25922 assessed as fold increase in resistance after 15 days serial passage upto 256 ug/ml; type: functional; conditions: dose <= 256 µg/ml; time 15 day

| SMILES | IC50 [1] | ΔTm (Staphylococcus aureus [2]) | ΔTm (Homo sapiens) | MIC (Escherichia coli [3]) | MIC (Shigella flexneri) | MIC (Salmonella typhi) | MIC (Staphylococcus aureus [4]) | MIC (Staphylococcus aureus [5]) | MIC (Staphylococcus aureus [6]) | MIC (Staphylococcus aureus [7]) | MBC (Staphylococcus aureus [8]) | Ratio (Staphylococcus aureus [9]) | Ratio (Escherichia coli [10]) | fold change (FC) (Staphylococcus aureus [11]) | fold change (FC) (Escherichia coli [12]) |
| --- | --- | --- | --- | --- | --- | --- | --- | --- | --- | --- | --- | --- | --- | --- | --- |
| O=C(C[C@@H]1CCCCN1)Cn1cnc2cccnc2c1=O | > 100 µM | 0 °C | 6.9 °C | > 64 µg/mL | > 64 µg/mL | > 64 µg/mL | > 64 µg/mL | > 64 µg/mL | > 64 µg/mL | > 64 µg/mL |  |  |  |  |  |
| O=C(C[C@@H]1CCCCN1)Cn1cnc2cccc(Cl)c2c1=O | 5.59 µM | 3 °C | 15.9 °C | > 64 µg/mL | > 64 µg/mL | > 64 µg/mL | > 64 µg/mL | > 64 µg/mL | > 64 µg/mL | > 64 µg/mL |  |  |  |  |  |
| CC1(C)S[C@@H]2[C@H](NC(=O)[C@H](N)c3ccccc3)C(=O)N2[C@H]1C(=O)O [AMPICILLIN] |  |  |  |  | 2 µg/mL (≈ 5.72 µM) | 2 µg/mL (≈ 5.72 µM) |  |  |  |  |  |  |  |  |  |
| O=C(C[C@@H]1CCCCN1)Cn1cnc2ccc(C(F)(F)F)cc2c1=O | > 100 µM | 1.2 °C | 9.9 °C | 64 µg/mL (≈ 181 µM) | 64 µg/mL (≈ 181 µM) | 64 µg/mL (≈ 181 µM) | 64 µg/mL (≈ 181 µM) | 64 µg/mL (≈ 181 µM) | 32 µg/mL (≈ 90.6 µM) | 64 µg/mL (≈ 181 µM) |  |  |  |  |  |
| O=C(C[C@@H]1CCCCN1)Cn1cnc2cc(Br)c(Cl)cc2c1=O | 0.61 µM | 6.2 °C | 17.9 °C | 32 µg/mL (≈ 80.3 µM) | 16 µg/mL (≈ 40.1 µM) | 32 µg/mL (≈ 80.3 µM) | 16 µg/mL (≈ 40.1 µM) | 16 µg/mL (≈ 40.1 µM) | 16 µg/mL (≈ 40.1 µM) | 32 µg/mL (≈ 80.3 µM) |  |  |  |  |  |
| O=C(C[C@@H]1CCCCN1)Cn1cnc2cc3ccccc3cc2c1=O | > 100 µM | 0 °C | 7.9 °C | > 64 µg/mL | > 64 µg/mL | > 64 µg/mL | > 64 µg/mL | > 64 µg/mL | > 64 µg/mL | > 64 µg/mL |  |  |  |  |  |
| COc1cc2ncn(CC(=O)C[C@@H]3CCCCN3)c(=O)c2cc1OC | > 100 µM | 0 °C | 4.2 °C | > 64 µg/mL | > 64 µg/mL | > 64 µg/mL | > 64 µg/mL | > 64 µg/mL | > 64 µg/mL | > 64 µg/mL |  |  |  |  |  |
| O=c1c2cc(Cl)c(Cl)cc2ncn1CCC[C@@H]1CCCCN1 | 6.8 µM | 2 °C | 12.4 °C | > 64 µg/mL | > 64 µg/mL | > 64 µg/mL | > 64 µg/mL | > 64 µg/mL | > 64 µg/mL | > 64 µg/mL |  |  |  |  |  |
| CC(C)(C)c1ccc2c(=O)n(CC(=O)C[C@@H]3CCCCN3)cnc2c1 | > 100 µM | 0 °C | 3.9 °C | > 64 µg/mL | > 64 µg/mL | > 64 µg/mL | > 64 µg/mL | > 64 µg/mL | > 64 µg/mL | > 64 µg/mL |  |  |  |  |  |
| O=C(C[C@@H]1CCCCN1)Cn1cnc2cc(F)c(F)cc2c1=O | 0.63 µM | 7.3 °C | 19.2 °C | 4 µg/mL (≈ 12.4 µM) | 4 µg/mL (≈ 12.4 µM) | 16 µg/mL (≈ 49.8 µM) | 16 µg/mL (≈ 49.8 µM) | 32 µg/mL (≈ 99.6 µM) | 16 µg/mL (≈ 49.8 µM) | 32 µg/mL (≈ 99.6 µM) | 128 µg/mL (≈ 398 µM) | 8 | 16 |  |  |
| O=c1c2ccccc2ncn1CCC[C@@H]1CCCCN1 | > 100 µM | 0 °C | 4.2 °C | > 64 µg/mL | > 64 µg/mL | > 64 µg/mL | > 64 µg/mL | > 64 µg/mL | > 64 µg/mL | > 64 µg/mL |  |  |  |  |  |
| O=C(C[C@@H]1CCCCN1)Cn1cnc2ccccc2c1=O | 18.3 µM | 1.3 °C | 15.7 °C | 64 µg/mL (≈ 224 µM) | 32 µg/mL (≈ 112 µM) | 64 µg/mL (≈ 224 µM) | 16 µg/mL (≈ 56.1 µM) | 32 µg/mL (≈ 112 µM) | 32 µg/mL (≈ 112 µM) | 32 µg/mL (≈ 112 µM) |  |  |  |  |  |
| C[C@H]1COc2c(N3CCN(C)CC3)c(F)cc3c(=O)c(C(=O)O)cn1c23.C[C@H]1COc2c(N3CCN(C)CC3)c(F)cc3c(=O)c(C(=O)O)cn1c23.O [LEVOFLOXACIN] |  |  |  |  |  |  |  |  |  |  |  |  |  | 64 |  |
| O=C(C[C@@H]1CCCCN1)Cn1cnc2cc(F)ccc2c1=O | 1.71 µM | 6.9 °C | 18.1 °C | 16 µg/mL (≈ 52.7 µM) | 8 µg/mL (≈ 26.4 µM) | 32 µg/mL (≈ 105 µM) | 32 µg/mL (≈ 105 µM) | 32 µg/mL (≈ 105 µM) | 32 µg/mL (≈ 105 µM) | 32 µg/mL (≈ 105 µM) |  |  |  |  |  |
| O=C(C[C@@H]1CCCCN1)Cn1cnc2cc3c(cc2c1=O)OCO3 | 36.3 µM | 2.1 °C | 15.9 °C | > 64 µg/mL | > 64 µg/mL | > 64 µg/mL | > 64 µg/mL | > 64 µg/mL | > 64 µg/mL | > 64 µg/mL |  |  |  |  |  |
| O=C(O)c1cn(C2CC2)c2cc(N3CCNCC3)c(F)cc2c1=O [CIPROFLOXACIN] |  |  |  |  | 2 µg/mL (≈ 6.04 µM) |  |  |  |  |  |  |  |  |  | 16 |
| Cc1cc2ncn(CC(=O)C[C@@H]3CCCCN3)c(=O)c2cc1C | 17.6 µM | 1.3 °C | 13.9 °C | > 64 µg/mL | > 64 µg/mL | > 64 µg/mL | > 64 µg/mL | > 64 µg/mL | > 64 µg/mL | > 64 µg/mL |  |  |  |  |  |
| O=C(C[C@@H]1CCCCN1)Cn1cnc2cc(C(F)(F)F)ccc2c1=O | 1.28 µM | 3.4 °C | 16.9 °C | > 64 µg/mL | > 64 µg/mL | > 64 µg/mL | > 64 µg/mL | > 64 µg/mL | > 64 µg/mL | > 64 µg/mL |  |  |  |  |  |
| O=C(C[C@@H]1CCCCN1)Cn1cnc2ccc(F)cc2c1=O | 8.2 µM | 6.3 °C | 17.9 °C | 16 µg/mL (≈ 52.7 µM) | 16 µg/mL (≈ 52.7 µM) | 32 µg/mL (≈ 105 µM) | 32 µg/mL (≈ 105 µM) | 32 µg/mL (≈ 105 µM) | 32 µg/mL (≈ 105 µM) | 32 µg/mL (≈ 105 µM) |  |  |  |  |  |
| O=C(C[C@@H]1CCCCN1)Cn1cnc2nccnc2c1=O | > 100 µM | 0 °C | 4.9 °C | > 64 µg/mL | > 64 µg/mL | > 64 µg/mL | > 64 µg/mL | > 64 µg/mL | > 64 µg/mL | > 64 µg/mL |  |  |  |  |  |
| O=C(C[C@@H]1CCCCN1)Cn1cnc2cc(Cl)c(Cl)cc2c1=O | 0.51 µM | 7.9 °C | 18.9 °C | 16 µg/mL (≈ 45.2 µM) | 16 µg/mL (≈ 45.2 µM) | 32 µg/mL (≈ 90.3 µM) | 4 µg/mL (≈ 11.3 µM) | 4 µg/mL (≈ 11.3 µM) | 8 µg/mL (≈ 22.6 µM) | 16 µg/mL (≈ 45.2 µM) | 64 µg/mL (≈ 181 µM) | 16 |  |  |  |
| O=c1c2cc(Cl)c(Br)cc2ncn1CCC[C@@H]1CCCCN1 | 12.4 µM | 2.5 °C | 15.1 °C | 64 µg/mL (≈ 166 µM) | 64 µg/mL (≈ 166 µM) | 64 µg/mL (≈ 166 µM) | 64 µg/mL (≈ 166 µM) | 64 µg/mL (≈ 166 µM) | 32 µg/mL (≈ 83.2 µM) | 64 µg/mL (≈ 166 µM) |  |  |  |  |  |
| O=c1c2cc(Cl)c(Br)cc2ncn1CC(O)C[C@@H]1CCCCN1 (stereo not given in full) | > 100 µM | 0 °C | 11.9 °C | > 64 µg/mL | > 64 µg/mL | > 64 µg/mL | > 64 µg/mL | > 64 µg/mL | > 64 µg/mL | > 64 µg/mL |  |  |  |  |  |
